Source: PubChem BioAssay (NCI)
Where “and” joins values, the source holds several entries; their conditions need not be identical. Identical values can stand only once.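 Cultured in 96-well plates, cells were exposed to test compound for 48 hours across five concentrations. Abbreviation: GI50, concentration required for 50% inhibition of growth. Definition used: TGI = concentration required for complete inhibition of growth.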

Legend:
Assay in all cases: NCI tumour cell line growth inhibition, 48 h
MALME-3M melanoma = system: MALME-3M melanoma
UACC-62 melanoma = system: UACC-62 melanoma
OVCAR-8 ovarian = system: OVCAR-8 ovarian
KM12 colon = system: KM12 colon
COLO 205 colon = system: COLO 205 colon
IGROV1 ovarian = system: IGROV1 ovarian
M14 melanoma = system: M14 melanoma
EKVX NSCLC = system: EKVX NSCLC
SW-620 colon = system: SW-620 colon
SNB-75 CNS = system: SNB-75 CNS

SMILES | TGI (MALME-3M melanoma) | TGI (UACC-62 melanoma) | TGI (OVCAR-8 ovarian) | TGI (KM12 colon) | TGI (COLO 205 colon) | TGI (IGROV1 ovarian) | TGI (M14 melanoma) | TGI (EKVX NSCLC) | TGI (SW-620 colon) | TGI (SNB-75 CNS) | GI50 (MALME-3M melanoma) | GI50 (UACC-62 melanoma) | GI50 (OVCAR-8 ovarian) | GI50 (KM12 colon) | GI50 (COLO 205 colon) | GI50 (IGROV1 ovarian) | GI50 (M14 melanoma) | GI50 (EKVX NSCLC) | GI50 (SW-620 colon) | GI50 (SNB-75 CNS)
CC(C)(Sc1cc(C(C)(C)C)c(O)c(C(C)(C)C)c1)Sc1cc(C(C)(C)C)c(O)c(C(C)(C)C)c1 | > 100 µM | > 100 µM | > 100 µM | > 100 µM | > 100 µM | > 100 µM | > 100 µM | > 100 µM | > 100 µM | > 100 µM |  |  |  |  |  |  |  |  |  | 
CN1CCN(c2cc(F)c(NC3=C(Cl)C(=O)c4ncccc4C3=O)c(F)c2)CC1 | 3.12 µM | 3.17 µM | 4 µM | 4.3 µM | 4.06 µM | 3.37 µM | 3.39 µM | 3.19 µM | 3.17 µM | 5.61 µM | 1.65 µM | 1.67 µM | 1.86 µM | 2.01 µM | 2 µM | 1.53 µM | 1.82 µM | 1.7 µM | 1.46 µM | 1.37 µM
CCOP(=O)(OCC)C(C(=O)OC)C(=O)C(=O)Nc1cccc([N+](=O)[O-])c1 (configuration not stated) | > 100 µM | > 100 µM | > 100 µM | > 100 µM | > 100 µM | > 100 µM | > 100 µM | > 100 µM | > 100 µM | > 100 µM |  |  |  |  |  |  |  |  |  | 
COc1cccc(C2CC(C)(O)Oc3cc4c(cc32)OCO4)c1 (configuration not stated) | > 100 µM | > 100 µM | > 100 µM | > 100 µM | 43.1 µM | > 100 µM | > 100 µM | > 100 µM | > 100 µM | 61.7 µM |  |  |  |  |  |  |  |  |  | 
COc1cc2c(cc1OCCCCCOc1ccc(-c3nc4ccccc4s3)cc1)N=C[C@@H]1CCCN1C2=O | 37.9 µM | 7.93 µM | 21.1 µM | 22.9 µM | 6.53 µM | 43.5 µM | 9.08 µM | > 21.2 µM | > 28.6 µM | 59.8 µM | 12.5 µM | 3.27 µM | 3.13 µM | 4.38 µM | 1.32 µM | 4.39 µM | 1.46 µM | 5.66 µM | 3.01 µM | 6.57 µM
O=C(O)C1CCCN1 (configuration not stated) | > 100 µM | > 100 µM | > 100 µM | > 100 µM | > 100 µM | > 100 µM | > 100 µM | > 100 µM | > 100 µM | > 100 µM |  |  |  |  |  |  |  |  |  | 
COc1ccc2c(c1[N+](=O)[O-])CC[C@@H]1[C@@H]2CC[C@]2(C)C(=O)CC[C@@H]12 |  |  | > 1000 µM | > 1000 µM |  | > 1000 µM | > 562 µM | > 1000 µM | > 1000 µM | > 25 µM and 345 µM | > 748 µM | 387 µM | 462 µM | > 1000 µM | > 1000 µM | 741 µM | > 562 µM | > 580 µM | > 1000 µM | 142 µM
O=C(Nc1ccccc1/C=C/c1n[nH]c2ccccc12)c1ccccc1 | 12 µM | 13 µM | 14.6 µM | 1.65 µM | 3.6 µM | 22.4 µM | 15 µM | 8.91 µM | 11.5 µM | 23.9 µM | 4.05 µM | 2.88 µM | 3.95 µM | 0.0648 µM | 1.71 µM | 6.47 µM | 3.32 µM | 1.34 µM | 1.71 µM | 9.04 µM
Clc1ccc2c(NCCCCNc3nc(N4CCOCC4)nc4ccccc34)ccnc2c1 | 3.89 µM | 3.48 µM | 10.6 µM | 12.4 µM | 4.49 µM | 11.5 µM | 3.91 µM | 15.3 µM | 12.5 µM | 3.03 µM | 2.05 µM | 1.92 µM | 3.53 µM | 3.52 µM | 1.87 µM | 2.99 µM | 2 µM | 3.7 µM | 2.65 µM | 1.33 µM
C[C@]12CC[C@H]3[C@@H](CCC4=CC(=O)CC[C@@]43C)[C@]1(O)CC[C@]2(O)C(=O)CO | > 100 µM | > 100 µM | > 100 µM | > 100 µM | > 100 µM | > 100 µM | > 100 µM | > 100 µM | > 100 µM | > 100 µM |  |  |  |  |  |  |  |  |  | 
CCCCCCCCCCCC1=NC(C)(C)CN1C(C)C | 4.32 µM | 3.54 µM | 16.3 µM | 3.96 µM | 3.15 µM | 4.53 µM | 3.57 µM | 21.1 µM | 3.87 µM | 19.2 µM | 1.92 µM | 1.75 µM | 4.35 µM | 1.94 µM | 1.77 µM | 1.64 µM | 1.89 µM | 6.55 µM | 1.85 µM | 6.04 µM
O=NN(CC1(O)OCC(O)C(O)C1O)C(Cc1c[nH]c2ccccc12)C(=O)O (configuration not stated) | > 100 µM | > 100 µM | > 100 µM | > 100 µM | > 100 µM | > 100 µM | > 100 µM | > 100 µM | > 100 µM | > 100 µM |  |  |  |  |  |  |  |  |  | 
CN(C)C(=C1C(Br)=C(Br)C(Br)=C1Br)N(C)C | > 100 µM | > 100 µM | > 100 µM | > 100 µM | > 100 µM | > 100 µM | > 100 µM | > 100 µM | > 100 µM | > 100 µM |  |  |  |  |  |  |  |  |  | 
